US11034650B2, “Compounds useful for treating a Mannheimia haemolytica or Histophilus somni infection” (Intervet Inc., priority 2016, dated 2021)
Values after ≈ are worked out from the molar mass of the structure shown.

Key:
Assay type in all cases: cell-based
[1] = test system: Mannheimia haemolytica MH 6357 (M7/2, reference strain, cattle infection strain); experiment: MIC, broth-microdilution (CLSI VET01-A4), strain MH 6357; settings: Mannheimia haemolytica strain MH 6357, broth-microdilution; unit assumed
Summary of the method: (§1)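 Read-out is unaided visual inspection for turbidity. The minimum inhibitory concentration is the lowest tested level without detectable growth across a two-fold compound series.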

[2] = test system: Mannheimia haemolytica MH 6374 (ATCC 33396, reference strain); experiment: MIC, broth-microdilution (CLSI VET01-A4), strain MH 6374; settings: Mannheimia haemolytica strain MH 6374, broth-microdilution; unit assumed
Summary of the method: as §1

[3] = test system: Mannheimia haemolytica MH 10720 (154, BRD field isolate); experiment: MIC, broth-microdilution (CLSI VET01-A4), strain MH 10720; settings: Mannheimia haemolytica strain MH 10720, broth-microdilution; unit assumed
Summary of the method: as §1

[4] = test system: Mannheimia haemolytica MH 12587 (1071, BRD field isolate, macrolide-resistance: erm+, E+); experiment: MIC, broth-microdilution (CLSI VET01-A4), strain MH 12587; settings: Mannheimia haemolytica strain MH 12587, broth-microdilution; unit assumed
Summary of the method: as §1

[5] = test system: Mannheimia haemolytica MH 13065 (XB0446-6003.9, BRD field isolate); experiment: MIC, broth-microdilution (CLSI VET01-A4), strain MH 13065; settings: Mannheimia haemolytica strain MH 13065, broth-microdilution; unit assumed
Summary of the method: as §1

[6] = test system: Mannheimia haemolytica MH 13093 (XB0472-6014.1, BRD field isolate); experiment: MIC, broth-microdilution (CLSI VET01-A4), strain MH 13093; settings: Mannheimia haemolytica strain MH 13093, broth-microdilution; unit assumed
Summary of the method: as §1

[7] = test system: Pasteurella multocida PM 6267 (P 2225 (L386), reference strain, mouse infection strain); experiment: MIC, broth-microdilution (CLSI VET01-A4), strain PM 6267; settings: Pasteurella multocida strain PM 6267, broth-microdilution; unit assumed
Summary of the method: as §1

[8] = test system: Pasteurella multocida PM 6391 (ATCC 43137, reference strain); experiment: MIC, broth-microdilution (CLSI VET01-A4), strain PM 6391; settings: Pasteurella multocida strain PM 6391, broth-microdilution; unit assumed
Summary of the method: as §1

[9] = test system: Pasteurella multocida PM 10775 (080130003051, BRD field isolate); experiment: MIC, broth-microdilution (CLSI VET01-A4), strain PM 10775; settings: Pasteurella multocida strain PM 10775, broth-microdilution; unit assumed
Summary of the method: as §1

[10] = test system: Pasteurella multocida PM 12080 (IV102277-0093, BRD field isolate); experiment: MIC, broth-microdilution (CLSI VET01-A4), strain PM 12080; settings: Pasteurella multocida strain PM 12080, broth-microdilution; unit assumed
Summary of the method: as §1

Row | SMILES | MIC MH 6357 [1] [µg/mL] | MIC MH 6374 [2] [µg/mL] | MIC MH 10720 [3] [µg/mL] | MIC MH 12587 [4] [µg/mL] | MIC MH 13065 [5] [µg/mL] | MIC MH 13093 [6] [µg/mL] | MIC PM 6267 [7] [µg/mL] | MIC PM 6391 [8] [µg/mL] | MIC PM 10775 [9] [µg/mL] | MIC PM 12080 [10] [µg/mL]
1 | CC(C)[C@H](NC(=O)c1ccc(C#Cc2ccc(CNCc3cccnc3)cc2)cc1)C(=O)NO [Compound 167] | 0.4 (≈ 0.876 µM) | 0.4 (≈ 0.876 µM) | ≤ 0.1 | 0.8 (≈ 1.75 µM) | 0.8 (≈ 1.75 µM) | 0.8 (≈ 1.75 µM) | ≤ 0.1 | 0.4 (≈ 0.876 µM) | ≤ 0.1 | 0.2 (≈ 0.438 µM)
2 | COCCNCc1ccc(C#Cc2ccc(C(=O)N[C@H](C(=O)NO)C(C)(C)S(C)(=O)=O)cc2)cn1 [Compound 349] | 1.6 (≈ 3.18 µM) | 3.1 (≈ 6.17 µM) | 0.8 (≈ 1.59 µM) | 6.3 (≈ 12.5 µM) | 6.3 (≈ 12.5 µM) | 3.1 (≈ 6.17 µM) | 1.6 (≈ 3.18 µM) | 0.8 (≈ 1.59 µM) | ≤ 0.1 | 0.4 (≈ 0.796 µM)
3 | CC(=O)C(NC(=O)c1ccc(C#Cc2ccc(CNCc3cccs3)cc2)cc1)C(=O)NO (stereo not shown) [Compound 411] | 0.4 (≈ 0.867 µM) | 0.8 (≈ 1.73 µM) | 0.8 (≈ 1.73 µM) | 0.2 (≈ 0.433 µM) | 0.8 (≈ 1.73 µM) | 0.8 (≈ 1.73 µM) | 3.1 (≈ 6.72 µM) | ≤ 0.1 | 0.4 (≈ 0.867 µM) | 0.2 (≈ 0.433 µM)
4 | CC(C)([C@H](NC(=O)c1ccc(C#Cc2ccc(CNCC#N)s2)cc1)C(=O)NO)S(C)(=O)=O [Compound 318] | 0.4 (≈ 0.819 µM) | 0.8 (≈ 1.64 µM) | ≤ 0.1 | 1.6 (≈ 3.27 µM) | 0.8 (≈ 1.64 µM) | 1.6 (≈ 3.27 µM) | 0.8 (≈ 1.64 µM) | 0.8 (≈ 1.64 µM) | ≤ 0.1 | 0.2 (≈ 0.409 µM)
5 | CC(C)(C(NC(=O)c1ccc(C#Cc2ccc(CNCc3ccc(F)cc3)cc2)cc1)C(=O)NO)[N+](=O)[O-] (stereo not shown) [Compound 284] | 0.4 (≈ 0.771 µM) | 0.8 (≈ 1.54 µM) | ≤ 0.1 | 1.6 (≈ 3.09 µM) | 0.2 (≈ 0.386 µM) | 0.8 (≈ 1.54 µM) | 0.8 (≈ 1.54 µM) | 0.4 (≈ 0.771 µM) | ≤ 0.1 | ≤ 0.1
6 | C=CCNCc1ccc(C#Cc2ccc(C(=O)N[C@H](C(=O)NO)C(C)(C)SC)cc2)s1 [Compound 301] | 0.4 (≈ 0.874 µM) | 0.8 (≈ 1.75 µM) | ≤ 0.1 | 0.8 (≈ 1.75 µM) | 0.4 (≈ 0.874 µM) | 0.8 (≈ 1.75 µM) | 0.4 (≈ 0.874 µM) | 1.6 (≈ 3.5 µM) | ≤ 0.1 | 0.4 (≈ 0.874 µM)
7 | CC(C)([C@H](NC(=O)c1ccc(C#Cc2ccc(CNCc3ccnc(Cl)c3)cc2)cc1)C(=O)NO)S(C)(=O)=O [Compound 268] | 0.4 (≈ 0.703 µM) | 0.4 (≈ 0.703 µM) | ≤ 0.1 | 0.8 (≈ 1.41 µM) | 0.2 (≈ 0.351 µM) | 0.4 (≈ 0.703 µM) | ≤ 0.1 | ≤ 0.1 | ≤ 0.1 | ≤ 0.1
8 | CC[C@H](C)[C@H](NC(=O)c1ccc(C#Cc2ccc(CN3CCCC3)cc2)cc1)C(=O)NO [Compound 174] | 3.1 (≈ 7.15 µM) | 6.3 (≈ 14.5 µM) | 0.8 (≈ 1.85 µM) | 6.3 (≈ 14.5 µM) | 6.3 (≈ 14.5 µM) | 6.3 (≈ 14.5 µM) | 0.4 (≈ 0.923 µM) | 1.6 (≈ 3.69 µM) | ≤ 0.1 | 1.6 (≈ 3.69 µM)
9 | CSC(C)(C)[C@H](NC(=O)c1ccc(C#Cc2ccc(CNC3CC3)s2)cc1)C(=O)NO [Compound 300] | 0.4 (≈ 0.874 µM) | 0.8 (≈ 1.75 µM) | ≤ 0.1 | 0.8 (≈ 1.75 µM) | 0.4 (≈ 0.874 µM) | 0.8 (≈ 1.75 µM) | 0.4 (≈ 0.874 µM) | ≤ 0.1 | ≤ 0.1 | 0.4 (≈ 0.874 µM)
10 | C=CCNCc1ccc(C#Cc2ccc(C(=O)N[C@H](C(=O)NO)C(C)(C)S(C)(=O)=O)cc2)s1 [Compound 312] | 0.4 (≈ 0.817 µM) | 0.4 (≈ 0.817 µM) | ≤ 0.1 | 0.8 (≈ 1.63 µM) | 0.4 (≈ 0.817 µM) | 0.8 (≈ 1.63 µM) | 0.4 (≈ 0.817 µM) | ≤ 0.1 | ≤ 0.1 | ≤ 0.1
11 | CSC(C)(C)[C@H](NC(=O)c1ccc(C#Cc2ccc(CNCc3ccco3)s2)cc1)C(=O)NO [Compound 308] | 0.8 (≈ 1.61 µM) | 0.8 (≈ 1.61 µM) | ≤ 0.1 | 1.6 (≈ 3.22 µM) | 0.8 (≈ 1.61 µM) | 1.6 (≈ 3.22 µM) | 0.8 (≈ 1.61 µM) | 0.4 (≈ 0.804 µM) | ≤ 0.1 | 0.4 (≈ 0.804 µM)
12 | CC(C)(C(NC(=O)c1ccc(C#Cc2ccc(CN3CCOCC3)nc2)cc1)C(=O)NO)S(C)(=O)=O (stereo not shown) [Compound 350] | 6.3 (≈ 12.2 µM) | 6.3 (≈ 12.2 µM) | 1.6 (≈ 3.11 µM) | 12.5 (≈ 24.3 µM) | 6.3 (≈ 12.2 µM) | 6.3 (≈ 12.2 µM) | 6.3 (≈ 12.2 µM) | 0.8 (≈ 1.55 µM) | ≤ 0.1 | 0.4 (≈ 0.777 µM)
13 | CC(C)(O)[C@H](NC(=O)c1ccc(C#Cc2ccc(CNCc3ccccn3)s2)cc1)C(=O)NO [Compound 297] | 0.2 (≈ 0.418 µM) | 0.4 (≈ 0.836 µM) | ≤ 0.1 | 0.8 (≈ 1.67 µM) | 0.4 (≈ 0.836 µM) | 0.4 (≈ 0.836 µM) | 0.4 (≈ 0.836 µM) | ≤ 0.1 | ≤ 0.1 | 0.2 (≈ 0.418 µM)
14 | CC(=O)C(NC(=O)c1ccc(C#Cc2ccc(CNCc3ccccc3)cc2)cc1)C(=O)NO (stereo not shown) [Compound 400] | 0.8 (≈ 1.76 µM) | 1.6 (≈ 3.51 µM) | 1.6 (≈ 3.51 µM) | 0.2 (≈ 0.439 µM) | 1.6 (≈ 3.51 µM) | 1.6 (≈ 3.51 µM) | 3.1 (≈ 6.81 µM) | ≤ 0.1 | 0.8 (≈ 1.76 µM) | 0.4 (≈ 0.878 µM)
15 | CSC(C)(C)[C@H](NC(=O)c1ccc(C#Cc2ccc(CNCC#N)nc2)cc1)C(=O)NO [Compound 342] | 1.6 (≈ 3.54 µM) | 3.1 (≈ 6.87 µM) | 0.4 (≈ 0.886 µM) | 6.3 (≈ 14 µM) | 3.1 (≈ 6.87 µM) | 3.1 (≈ 6.87 µM) | 1.6 (≈ 3.54 µM) | 1.6 (≈ 3.54 µM) | 0.2 (≈ 0.443 µM) | 0.8 (≈ 1.77 µM)
16 | CON=C(C)[C@H](NC(=O)c1ccc(C#Cc2ccc(CNCc3nccs3)cc2)cc1)C(=O)NO [Compound 395] | 0.4 (≈ 0.814 µM) | 0.8 (≈ 1.63 µM) | 0.4 (≈ 0.814 µM) | 0.2 (≈ 0.407 µM) | 0.8 (≈ 1.63 µM) | 0.8 (≈ 1.63 µM) | 3.1 (≈ 6.31 µM) | ≤ 0.1 | 0.2 (≈ 0.407 µM) | 0.2 (≈ 0.407 µM)
17 | C=CCNCc1ccc(C#Cc2ccc(C(=O)NC(C(=O)NO)C(C)(C)[N+](=O)[O-])cc2)cc1 (stereo not shown) [Compound 280] | 1.6 (≈ 3.55 µM) | 0.8 (≈ 1.78 µM) | ≤ 0.1 | 3.1 (≈ 6.88 µM) | 1.6 (≈ 3.55 µM) | 1.6 (≈ 3.55 µM) | ≤ 0.1 | 0.4 (≈ 0.888 µM) | ≤ 0.1 | 0.2 (≈ 0.444 µM)
18 | COCCNCc1ccc(C#Cc2ccc(C(=O)N[C@@H](C(C)=O)C(=O)NO)cc2)cc1 [Compound 398] | 6.3 (≈ 14.9 µM) | 6.3 (≈ 14.9 µM) | 6.3 (≈ 14.9 µM) | 1.6 (≈ 3.78 µM) | 12.5 (≈ 29.5 µM) | 25 (≈ 59 µM) | 25 (≈ 59 µM) | 0.2 (≈ 0.472 µM) | 3.1 (≈ 7.32 µM) | 1.6 (≈ 3.78 µM)
19 | CC(C)(O)[C@H](NC(=O)c1ccc(C#Cc2ccc(CNCc3cccnc3)s2)cc1)C(=O)NO [Compound 296] | ≤ 0.1 | 0.2 (≈ 0.418 µM) | ≤ 0.1 | 0.4 (≈ 0.836 µM) | ≤ 0.1 | 0.4 (≈ 0.836 µM) | 0.8 (≈ 1.67 µM) | ≤ 0.1 | ≤ 0.1 | ≤ 0.1
20 | CSC(C)(C)[C@H](NC(=O)c1ccc(C#Cc2ccc(CNC3CC3)cc2)cc1)C(=O)NO [Compound 235] | 0.4 (≈ 0.886 µM) | 0.8 (≈ 1.77 µM) | ≤ 0.1 | 1.6 (≈ 3.54 µM) | 0.4 (≈ 0.886 µM) | 0.4 (≈ 0.886 µM) | ≤ 0.1 | ≤ 0.1 | ≤ 0.1 | ≤ 0.1
21 | C=CCNCc1ccc(C#Cc2ccc(C(=O)N[C@H](C(=O)NO)C(C)(C)O)cc2)s1 [Compound 291] | ≤ 0.1 | ≤ 0.1 | ≤ 0.1 | 0.8 (≈ 1.87 µM) | 0.4 (≈ 0.936 µM) | 0.4 (≈ 0.936 µM) | 0.8 (≈ 1.87 µM) | 0.4 (≈ 0.936 µM) | ≤ 0.1 | ≤ 0.1
22 | CC(C)[C@H](NC(=O)c1ccc(C#Cc2ccc(CNCc3ccccn3)cc2)cc1)C(=O)NO [Compound 169] | 0.4 (≈ 0.876 µM) | 0.8 (≈ 1.75 µM) | 0.2 (≈ 0.438 µM) | 1.6 (≈ 3.5 µM) | 0.8 (≈ 1.75 µM) | 0.8 (≈ 1.75 µM) | ≤ 0.1 | 0.4 (≈ 0.876 µM) | ≤ 0.1 | 0.4 (≈ 0.876 µM)
